This is an account of results in patent US11999727B2 (Tango Therapeutics, Inc., priority 2020, dated 2024).

Test [1] has as its system HAP1 MTAP-deleted cell line. The test can be described thus: Viability assay, MTAP-deleted cell line. The following applies: Homo sapiens, HAP1, viability assay, read-out: HAP1 MTAP deleted viability. Format: cell-based. From the text: Table 1 additionally indicates IC50 values in a viability assay for the MTAP-deleted cell line (column 10), indicating the effect of treatment with compound on cell survival.

Test [2] relates to HAP1 MTAP-intact cell line. Description: SDMA in-cell western assay, HAP1 MTAP-intact. Format: cell-based. The following applies: Homo sapiens, HAP1, SDMA in-cell western, HAP1 MTAP-intact; read-out: MTAP HAP1 intact IC50. In short, it runs like this:
(§1)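 MTAP-null vs endogenous-MTAP HAP1 isogenic cells; in-cell western SDMA readout; IC50 per line.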

The target of test [3] is T1, PRMT5 (Homo sapiens, UniProt O14744).
T1 construct: purchased Viva (custom protein)
The test can be described thus: PRMT5 biochemical IC50 assay with SAM as cofactor. The following applies: PRMT5, SAM as cofactor; read-out: SAM IC50.

Test [4] has as its system HAP1 MTAP-deleted cell line. Description: SDMA in-cell western assay, HAP1 MTAP-deleted. Format: cell-based. The following applies: for IC50: Homo sapiens, HAP1, SDMA in-cell western, HAP1 MTAP-deleted; for MTAP intact/deleted ratio: SDMA in-cell western. In short, it runs like this:
as §1

The target in test [5] is T1, PRMT5. Description: PRMT5 biochemical IC50 assay with no cofactor. The following applies: PRMT5, no cofactor; read-out: No Cofactor/rel IC50. The text has this:
Table 1 indicates IC50 values (μM) against PRMT5 for exemplary compounds in the presence of SAM as cofactor, with no cofactor, and with MTA as cofactor, respectively (columns 4-6). […] Ki values can be calculated from the IC50 values as described in the Examples section. As detailed in the Examples section, for the assay performed in the presence of SAM, IC50=Ki×1.5 (Ki=IC50/1.5).

The target in test [6] is T1, PRMT5. The test can be described thus: PRMT5 biochemical IC50 assay with MTA as cofactor. The following applies: PRMT5, MTA as cofactor; read-out: MTA IC50.
Setting [7] is: read-out: HAP1 MTAP deleted IC50.
The mark [8] stands for this setting: IC50 ratio HAP1 MTAP-intact / HAP1 MTAP-deleted.
[9] abbreviates: read-out: HAP 1 MTAP deleted IC50.

T1 sequence (O14744 whole entry): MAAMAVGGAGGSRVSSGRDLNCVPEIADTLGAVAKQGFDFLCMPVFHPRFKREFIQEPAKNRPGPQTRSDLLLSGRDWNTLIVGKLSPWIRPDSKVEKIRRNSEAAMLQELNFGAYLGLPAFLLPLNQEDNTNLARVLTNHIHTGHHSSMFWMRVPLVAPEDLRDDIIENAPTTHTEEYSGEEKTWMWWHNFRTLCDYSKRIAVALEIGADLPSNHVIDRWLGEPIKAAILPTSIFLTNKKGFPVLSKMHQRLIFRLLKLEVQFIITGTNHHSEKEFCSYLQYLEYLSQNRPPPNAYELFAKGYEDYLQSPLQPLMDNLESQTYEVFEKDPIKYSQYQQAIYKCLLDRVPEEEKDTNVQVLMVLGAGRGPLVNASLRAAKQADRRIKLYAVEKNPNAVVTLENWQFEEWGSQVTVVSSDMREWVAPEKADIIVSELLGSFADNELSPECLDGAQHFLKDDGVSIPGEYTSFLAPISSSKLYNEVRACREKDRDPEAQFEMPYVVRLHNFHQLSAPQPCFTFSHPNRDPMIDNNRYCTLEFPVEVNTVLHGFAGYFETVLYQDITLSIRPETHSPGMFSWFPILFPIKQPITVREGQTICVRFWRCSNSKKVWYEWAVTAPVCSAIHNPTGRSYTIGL
T1 sequence (Q9BQA1 whole entry partner): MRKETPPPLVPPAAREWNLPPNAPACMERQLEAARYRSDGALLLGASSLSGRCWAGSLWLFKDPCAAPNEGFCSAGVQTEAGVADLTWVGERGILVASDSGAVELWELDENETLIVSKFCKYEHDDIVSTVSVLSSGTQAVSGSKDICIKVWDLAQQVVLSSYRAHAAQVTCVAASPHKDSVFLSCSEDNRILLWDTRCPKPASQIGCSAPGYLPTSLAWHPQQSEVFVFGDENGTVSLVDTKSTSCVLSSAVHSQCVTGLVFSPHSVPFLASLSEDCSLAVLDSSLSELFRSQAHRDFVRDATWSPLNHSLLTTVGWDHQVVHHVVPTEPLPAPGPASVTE

Consider `Cc1cc(NC(=O)C(=O)N2CC(C)CCC2C2CNC(=O)C2)cnc1N` (stereo not drawn) [Compound 210, N-(6-amino-5-methylpyridin-3-yl)-2-(5-methyl-2-(5-oxopyrrolidin-3-yl)piperidin-1-yl)-2-oxoacetamide], for which the IC50 in test [1] (MTAP-deleted cell line) was greater than 10000 nM; in test [2], greater than 1000 nM; at PRMT5 [3], greater than 500 nM; in test [4] (setting [7]), greater than 1000 nM; at PRMT5 [5], 50 to 500 nM; on PRMT5 [6], 50 to 500 nM. Besides, the MTAP intact/deleted ratio result in test [4] (setting [8]) is “B (an IC50 ratio greater than or equal to 3 fold but lower than 10 fold)”.

Take `Cc1cc(NC(=O)C(=O)N2CCCCC2C23CC(C(F)(F)F)(C2)C3)cnc1N` (stereo not drawn) [Compound 217, N-(6-amino-5-methyl-3-pyridyl)-2-oxo-2-[2-[3-(trifluoromethyl)-1-bicyclo[1.1.1]pentanyl]-1-piperidyl]acetamide]: the IC50 is greater than 10000 nM in test [1] (MTAP-deleted cell line); greater than 1000 nM in test [2]; 50 to 500 nM at PRMT5 [3]; greater than 1000 nM in test [4] (setting [7]); greater than 500 nM on PRMT5 [5]; 50 to 500 nM on PRMT5 [6]. Besides, the MTAP intact/deleted ratio result in test [4] (setting [8]) was “B (an IC50 ratio greater than or equal to 3 fold but lower than 10 fold)”.

As for `CCC(C)C1CCCCN1C(=O)C(=O)Nc1cnc(N)c(C)c1` (stereo not drawn) [Compound 232, N-(6-amino-5-methyl-3-pyridyl)-2-oxo-2-(2-sec-butyl-1-piperidyl)acetamide], the IC50 is greater than 10000 nM in test [1] (MTAP-deleted cell line); greater than 1000 nM in test [2]; greater than 500 nM at PRMT5 [3]; greater than 1000 nM in test [4] (setting [7]); greater than 500 nM at PRMT5 [5]; 50 to 500 nM at PRMT5 [6]. The MTAP intact/deleted ratio entry in test [4] (setting [8]) is “B (an IC50 ratio greater than or equal to 3 fold but lower than 10 fold)”.

With `NC(=O)c1cncc(NC(=O)C(=O)N2CCCCC2C2CCCC2)c1` (stereo not drawn) [Compound 240, 5-(2-(2-cyclopentylpiperidin-1-yl)-2-oxoacetamido)nicotinamide], the IC50 was greater than 10000 nM in test [1] (MTAP-deleted cell line); greater than 1000 nM in test [2]; 50 to 500 nM on PRMT5 [3]; 100 to 1000 nM in test [4] (setting [7]); 50 to 500 nM on PRMT5 [5]; less than 50 nM on PRMT5 [6]. Moreover, the MTAP intact/deleted ratio result in test [4] (setting [8]) was “A (an IC50 ratio greater than or equal to 10 fold)”.

As for `C[C@@H]1CC[C@@H](c2ccc(F)cc2)N(C(=O)C(=O)Nc2cncc(C(N)=O)c2)C1` [Compound 302, 5-[[2-[(2S,5R)-2-(4-fluorophenyl)-5-methyl-1-piperidyl]-2-oxo-acetyl]amino]pyridine-3-carboxamide], the IC50 is greater than 10000 nM in test [1] (MTAP-deleted cell line); greater than 1000 nM in test [2]; greater than 500 nM at PRMT5 [3]; greater than 1000 nM in test [4] (setting [7]); greater than 500 nM on PRMT5 [5]; greater than 500 nM at PRMT5 [6]. For the same compound, the MTAP intact/deleted ratio result in test [4] (setting [8]) is given as “C (an IC50 ratio of less than 3 fold)”.

Turning to `CNc1ccc([C@H]2CC[C@H](C)CN2C(=O)C(=O)Nc2cncc(C(N)=O)c2)cc1` [Compound 438, 5-[[2-[(2R,5S)-5-methyl-2-[4-(methylamino)phenyl]-1-piperidyl]-2-oxo-acetyl]amino]pyridine-3-carboxamide], the IC50 is less than 1000 nM in test [1] (MTAP-deleted cell line); greater than 1000 nM in test [2]; less than 50 nM on PRMT5 [3]; less than 100 nM in test [4] (setting [7]); less than 50 nM on PRMT5 [5]; less than 50 nM at PRMT5 [6]. Also, the MTAP intact/deleted ratio result in test [4] (setting [8]) is “A (an IC50 ratio greater than or equal to 10 fold)”.

`Cc1cc(NC(=O)C(=O)N2CC3(CCC2c2ccc(F)cc2)CC3)cnc1N` (stereo not drawn) [Compound 753]: the IC50 is 1000 to 10000 nM in test [1] (HAP1 MTAP-deleted); greater than 1000 nM in test [2]; 50 to 500 nM at PRMT5 [3]; 100 to 1000 nM in test [4] (setting [7]); 50 to 500 nM at PRMT5 [5]; less than 50 nM on PRMT5 [6]. The MTAP intact/deleted ratio result in test [4] (setting [8]) is recorded as “A (an IC50 ratio greater than or equal to 10 fold)”.

Regarding `NC(=O)c1cncc(NC(=O)C(=O)N2CC3(CCC2c2ccc(F)cc2)CC3)c1` (stereo not drawn) [Compound 776, 5-(2-(6-(4-fluorophenyl)-5-azaspiro[2.5]octan-5-yl)-2-oxoacetamido)nicotinamide], the IC50 in test [1] (HAP1 MTAP-deleted) is 1000 to 10000 nM; in test [2] it was greater than 1000 nM; on PRMT5 [3], 50 to 500 nM; in test [4] (setting [7]) it was 100 to 1000 nM; on PRMT5 [5], 50 to 500 nM; on PRMT5 [6], 50 to 500 nM. Moreover, the MTAP intact/deleted ratio entry in test [4] (setting [8]) is reported as “A (an IC50 ratio greater than or equal to 10 fold)”.

`CCc1cc(NC(=O)C(=O)N2C[C@@H](C)CC[C@@H]2c2ccc(F)cc2)cnc1C` [Compound 779, N-(5-ethyl-6-methyl-3-pyridyl)-2-[(2R,5S)-2-(4-fluorophenyl)-5-methyl-1-piperidyl]-2-oxo-acetamide]: the IC50 was 1000 to 10000 nM in test [1] (HAP1 MTAP-deleted); greater than 1000 nM in test [2]; 50 to 500 nM at PRMT5 [3]; 100 to 1000 nM in test [4] (setting [7]); 50 to 500 nM at PRMT5 [5]; less than 50 nM on PRMT5 [6]. Also, the MTAP intact/deleted ratio result in test [4] (setting [8]) is “A (an IC50 ratio greater than or equal to 10 fold)”.

As to `COc1cc(NC(=O)C(=O)N2C[C@@H](C)CC[C@@H]2c2ccc(F)cc2)cnc1N` [Compound 979, N-(6-amino-5-methoxy-3-pyridyl)-2-[(2R,5S)-2-(4-fluorophenyl)-5-methyl-1-piperidyl]-2-oxo-acetamide], the IC50 in test [1] (MTAP-deleted cell line) was 1000 to 10000 nM; in test [2], greater than 1000 nM; on PRMT5 [3], 50 to 500 nM; in test [4] (setting [9]), 100 to 1000 nM; at PRMT5 [5], 50 to 500 nM; at PRMT5 [6], less than 50 nM. The MTAP intact/deleted ratio result in test [4] (setting [8]) is recorded as “A (an IC50 ratio greater than or equal to 10 fold)”.

For `C[C@H]1CC[C@H](c2ccc(F)cc2)N(C(=O)C(=O)Nc2cnc(N)c(C3CC3)c2)C1` [Compound 989, N-(6-amino-5-cyclopropyl-3-pyridyl)-2-[(2R,5S)-2-(4-fluorophenyl)-5-methyl-1-piperidyl]-2-oxo-acetamide], the IC50 in test [1] (MTAP-deleted cell line) is less than 1000 nM; in test [2] it was greater than 1000 nM; at PRMT5 [3] it was 50 to 500 nM; in test [4] (setting [9]) it was less than 100 nM; at PRMT5 [5], 50 to 500 nM; on PRMT5 [6], less than 50 nM. Also, the MTAP intact/deleted ratio entry in test [4] (setting [8]) is “A (an IC50 ratio greater than or equal to 10 fold)”.

With `CC(C)c1cc(NC(=O)C(=O)N2C[C@@H](C)CC[C@@H]2c2ccc(F)cc2)cnc1N` [Compound 993, N-(6-amino-5-isopropyl-3-pyridyl)-2-[(2R,5S)-2-(4-fluorophenyl)-5-methyl-1-piperidyl]-2-oxo-acetamide], the IC50 was 1000 to 10000 nM in test [1] (MTAP-deleted cell line); greater than 1000 nM in test [2]; 50 to 500 nM on PRMT5 [3]; 100 to 1000 nM in test [4] (setting [9]); less than 50 nM on PRMT5 [5]; less than 50 nM on PRMT5 [6]. Moreover, the MTAP intact/deleted ratio entry in test [4] (setting [8]) was “A (an IC50 ratio greater than or equal to 10 fold)”.

In the case of `C[C@H]1CC[C@H](c2ccc(F)cc2)N(C(=O)C(=O)Nc2cnc(N)c(OC(F)F)c2)C1` [Compound 1026, N-[6-amino-5-(difluoromethoxy)-3-pyridyl]-2-[(2R,5S)-2-(4-fluorophenyl)-5-methyl-1-piperidyl]-2-oxo-acetamide], the IC50 in test [1] (MTAP-deleted cell line) was 1000 to 10000 nM; in test [2] it was greater than 1000 nM; on PRMT5 [3], 50 to 500 nM; in test [4] (setting [9]), 100 to 1000 nM; on PRMT5 [5] it was 50 to 500 nM; at PRMT5 [6], less than 50 nM. Besides, in test [4] (setting [8]), the MTAP intact/deleted ratio entry was “A (an IC50 ratio greater than or equal to 10 fold)”.

Consider `C[C@H]1CC[C@H](c2ccc(F)cc2)N(C(=O)C(=O)Nc2cnc(OC(F)(F)F)c(C(N)=O)c2)C1` [Compound 1039, 5-[[2-[(2R,5S)-2-(4-fluorophenyl)-5-methyl-1-piperidyl]-2-oxo-acetyl]amino]-2-(trifluoromethoxy)pyridine-3-carboxamide], for which the IC50 in test [1] (MTAP-deleted cell line) was in the range of 1000 to 10000 nM; in test [2] it was 100 to 1000 nM; on PRMT5 [3], 50 to 500 nM; in test [4] (setting [9]), 100 to 1000 nM; on PRMT5 [5] it was 50 to 500 nM; on PRMT5 [6], 50 to 500 nM. Besides, the MTAP intact/deleted ratio result in test [4] (setting [8]) is on record as “C (an IC50 ratio of less than 3 fold)”.

`CCc1cc(NC(=O)C(=O)N2C[C@@H](C)CC[C@@H]2c2cccc([C@@H]3CCCN(C)C3)c2)cnc1N` [Compound 1090, N-(6-amino-5-ethyl-3-pyridyl)-2-oxo-2-[(2R,5S)-5-methyl-2-[3-[(3S)-1-methyl-3-piperidyl]phenyl]-1-piperidyl]acetamide]: the IC50 in test [1] (MTAP-deleted cell line) was less than 1000 nM; in test [2], 100 to 1000 nM; at PRMT5 [3], less than 50 nM; in test [4] (setting [7]), less than 100 nM; at PRMT5 [5] it was less than 50 nM; on PRMT5 [6] it was less than 50 nM. Further, the MTAP intact/deleted ratio result in test [4] (IC50 ratio HAP1 MTAP-intact vs HAP1 MTAP-deleted) was “A (an IC50 ratio greater than or equal to 10 fold)”.
